Laboratory results taken from patent publication US20170363618A1, “AGE-MODIFIED CELLS AND METHODS FOR MAKING AGE-MODIFIED CELLS” (MEMORIAL SLOAN-KETTERING CANCER CENTER, priority 2015, published 2017).
Entries after “also recorded” stand apart in the source; their conditions may differ. Where two headings read alike, the source gives them in different places.

Experiments:
[1] = tested on: young (348) and old (204) fibroblasts; assay: Immunofluorescence detection of aging marker expression in fibroblasts after three-day compound treatment; type: cell-based, human; details: for shape of youthful marker expression over the three doses (C1-C3): in some cases, highest dose gave lower expression than middle or lower dose
Experimental: Cell samples were all supplied by Coriell Cell Repositories. The cell line from a young individual (<20 years) was GM03348 (“348”). The cell line from an old individual (>65 years) was GM04204 (“204”).
Cells were cultured in human fibroblast medium made from 95% Gibco's Minimum Essential Medium, 4.5% fetal bovine serum, and 0.5% Penicillin/Streptomycin. Cells were plated on 15 cm plates and passaged every 2-3 days as necessary, and fed every other day. For experimentation, cells were plated in 96 well plates or 6 well plates. Before fixation, cells were treated with a preextraction buffer containing 20 mM Hepes pH 7.9, 0.5% Triton X-100, 50 mM NaCl, and 300 mM sucrose for 7 minutes at 4° C. to reduce the high levels of background seen in initial stainings. Cells were then fixed with 4% paraformaldehyde for 15 minutes at room temperature.
After fixing, cells were incubated in Permeablization Buffer containing 0.3% Triton X-100 and 1% BSA in PBS for 35 minutes at room temperature. Cells were then incubated with primary antibodies to markers (1:1000 in PBS) at 4° C. overnight. Following incubation, cells were washed 3× with PBS, then incubated with secondary antibodies (1:500 in PBS) for 30 minutes at room temperature, protected from light. Following this incubation, cells were washed 1× with PBS, then incubated with DAPI 1:1000 in PBS for 7 minutes at room temperature, protected from light, then washed 2× with PBS. Stainings were imaged using either using the Hamamatsu Olympus IX81 microscope, or the PerkinElmer Operetta High Content Imaging System. The expression level of each marker was determined relative to the untreated control on the same treatment plate (FIGS. 11, 13, 15 and 16), or to the average of the untreated controls across all treatment plates for the same marker (FIGS. 12 and 14).
Imaging of immunofluorescence was done using the PerkinElmer Operetta High Content Imaging System. Each well had several (>15) random spots in each plate imaged, and staining intensity quantification was done using the Operetta Harmony software. Analysis is based on mean intensity levels of each staining within a single well compared to mean intensity levels in other wells.
(§1) Cells were then treated with each of the six compounds for three days. Each compound had both a young and old untreated control, as well as the three pre-determined concentrations for both young and old cells. In addition, a six-well plate was set up for Decitabine, Zebularine, Chaetocin and SW155246, with an additional 3 cm plate for use as untreated controls for quantification of global levels of DNA methylation. After treatment, cells were stained with immunofluorescence for HP1α, H1, γH2Ax, Lamin B1, H3K9me3 and […].

[2] = tested on: young (348) and old (204) fibroblasts; assay: 10-day culture with compounds, cell survival measured by cell number counts; type: cell-based
Experimental: Cell numbers are calculated as a mean of 8 wells.
Control cultures of young cells were still healthy after 10 days, and the compounds all had effects on viability (FIG. 15).

[3] = tested on: global DNA levels of 5-mC methylation; assay: Global 5-mC DNA methylation quantification (colorimetric Methylflash kit) in treated fibroblasts; type: cell-based, human; details: 3 days of treatment, young and old fibroblasts, three concentrations
Experimental: Genomic DNA was extracted from treated cell samples using the Quick-gDNA MicroPrep kit (Zymo). Global levels of DNA methylation were measured using the colorimetric Methylflash Methylated DNA quantification kit (Epigentek) according to manufacturer instructions, and read using the PerkinElmer ENSPIRE plate reader. gDNA sample size was 50 ng. Analysis was performed according to manufacturer instructions.
as §1

motor neurons (MNs) = details: ALS motor neuron screen, 72 hr with compound; cited from earlier work
[4] = 3-day treatment, primary fibroblasts from young and old individuals, immunofluorescence vs untreated control
[5] = 3-day treatment, young and old fibroblasts

Oc1ccc(C=Cc2cc(O)cc(O)c2)cc1 [Resveratrol]
effect on markers in young cells compared to old cells ([1]; 3-day culture): greater in young cells compared to old cells; also recorded: more of an effect on young cells than on old cells | levels of all markers (H1, HP1α, H3K9me3, H3K27me3, LaminB1, yH2Ax) ([1]; 3-day culture, young (348) and old (204) fibroblasts, normalized to untreated, FIG. 11): increased | levels of the five markers of a younger state (H1, HP1α, H3K9me3, H3K27me3, LaminB1) ([1]; 3-day culture, young and old fibroblasts): all increased | levels of HP1α (heterochromatin marker, marker of young cellular age) [1, 4]: increasing | levels of histone protein H1 (marker of young cellular age) [1, 4]: increasing | toxicity / effect on viability after prolonged culture (cell number) [2]: Toxicity was also seen

O=[N+]([O-])c1cc(S(=O)(=O)Nc2ccc(O)c3ccccc23)ccc1Cl [SW155246, 4-Chloro-N-(4-hydroxy-1-naphthalenyl)-3-nitro-benzenesulfonamide]
shape of youthful marker expression over the three doses (C1-C3) ([1]; 3-day treatment): inverted U shaped curve | levels of HP1α (heterochromatin marker, marker of young cellular age) [1, 4]: decreasing | levels of histone protein H1 (marker of young cellular age) [1, 4]: decreasing | levels of γH2AX (DNA damage marker, marker of old cellular age) [1, 4]: increasing | expression of the six markers tested [1, 5]: modulated | global levels of 5-mC DNA methylation [3]: increased with both the highest and lowest concentrations, but decreased slightly with the middle concentration; also recorded: did not consistently go down | toxicity / effect on viability after prolonged culture (cell number) [2]: Much less toxicity

CN1C(=O)[C@@]23C[C@]4([C@]56C[C@@]78SS[C@@](CO)(C(=O)N7[C@H]5Nc5ccccc56)N(C)C8=O)c5ccccc5N[C@@H]4N2C(=O)[C@]1(CO)SS3 [Chaetocin, (3S,3'S,5aR,5aR,10bR,10′bR,11aS,11′aS)-2,2′,3,3′,5a,5′a,6,6′-octahydro-3,3′-bis(hydroxymethyl)-2,2′-dimethyl-[10b,10′b(11H,11′H)-bi3,11a-epidithio-11aH-pyrazino[1′,2′:1,5]pyrrolo[2,3-b]indole]-1,1′,4,4′-tetrone]
toxicity / effect on viability after prolonged culture (cell number) ([2]; 10-day culture, young cells (control cultures still healthy)): highest toxicity

O=C1Cc2c([nH]c3ccc(Br)cc23)-c2ccccc2N1 [kenpaullone]
survival of motor neurons after trophic factor withdrawal (motor neurons (MNs)): impressive ability to prolong the healthy survival of MNs

O=c1ncccn1[C@@H]1O[C@H](CO)[C@@H](O)[C@H]1O [Zebularine, 1-(β-D-Ribofuranosyl)-2(1H)-pyrimidinone]
shape of youthful marker expression over the three doses (C1-C3) ([1]; 3-day treatment): inverted U shaped curve | expression of the six markers tested [1, 5]: modulated | global levels of 5-mC DNA methylation [3]: decrease | toxicity / effect on viability after prolonged culture (cell number) [2]: Much less toxicity

Nc1ncn([C@H]2C[C@H](O)[C@@H](CO)O2)c(=O)n1 [Decitabine, 5-aza-2-deoxycytidine]
toxicity / effect on viability after prolonged culture (cell number) [2]: Much less toxicity

CO[C@H]1C[C@@H]2CC[C@@H](C)[C@@](O)(O2)C(=O)C(=O)N2CCCC[C@H]2C(=O)O[C@H]([C@H](C)C[C@@H]2CC[C@@H](O)[C@H](OC)C2)CC(=O)[C@H](C)/C=C(\C)[C@@H](O)[C@@H](OC)C(=O)[C@H](C)C[C@H](C)/C=C/C=C/C=C/1C [Rapamycin]
toxicity / effect on viability after prolonged culture (cell number) [2]: Toxicity was also seen
